Measured values reported in US20260077277A1, “DILUTABLE COMPOSITIONS AND PROCESSES FOR EXTRACTING AND REFINING POORLY WATER-SOLUBLE POLAR OILS FROM BIOMASS” (priority 2022, published 2026).

Columns and labels:
[1] = cited from earlier work
[2] = characteristic curvature (Cc), HLD framework; assay type: physicochemical; settings: obtained following procedure of Nouraei et al. (WO 2022/140843)

Compound	water solubility [1]	characteristic curvature (Cc) [2]
C=CCc1ccc(O)c(OC)c1 [Eugenol, eugenol]	0.14 wt %	
CCCCCc1cc(O)c2c(c1)OC(C)(C)[C@@H]1CCC(C)=C[C@@H]21 [THC, tetrahydrocannabinol]		+2.7
C=C(C)[C@@H]1CCC(C)=C[C@H]1c1c(O)cc(CCCCC)cc1O [CBD, cannabidiol]	0.0013 wt %	
